Experiments:
HLA class I = HLA class I expression on tumor cells by flow cytometry; type: cell-based, human; settings: for HLA class I induction by IFNγ in combination with BETi: increasing BETi concentrations with a standard concentration of IFNγ (FIG. 5)
Method: (§1) Flow cytometry was done after staining with the following antibodies: anti-human HLA-ABC APC-Cy7 (clone W6/32; Biolegend, San Diego, CA, USA), CD274 BV786 (clone MIH1; BD Biosciences, Franklin lakes, NJ, USA). All data were acquired on a Novocyte 2000 [?] flow cytometer (Acea Biosciences, San Diego, CA, USA) were analyzed using FlowJo software version 10 (Treestar).
(§2) We show herein that treating patient-derived early-passage melanoma cell lines with JQ1 enhances recognition by autologous TIL. […] Along with this, PD-L1 and HLA class I expression were assessed by flow cytometry in pretreated tumor cells to find out whether functional observations in the tumor-TIL co-cultures would be associated with changes in PD-L1 expression or HLA class I expression, both markers being key determinants of T-cell activation upon target cell recognition.

ANRU tumor cells = experiment: Co-culture of pretreated ANRU tumor cells with autologous TIL, IFNγ ELISA on supernatant; type: cell-based, human; settings: for Time kinetics of sensitization for recognition by TIL: ANRU pretreated 12, 24, 48 and 72 hours; for Time kinetics of sensitization for recognition by TIL / T-cell recognition by autologous TIL (IFNγ production in co-culture): 24 hours co-culture
Method: Tumor cells were also co-cultured with unsorted TIL, and TIL without specificity for the aforementioned tumor antigens (designated ‘neg’).
(§3) Cells were subsequently trypsinized, washed and co-cultured for 24 hours with autologous tumor-infiltrating lymphocytes (TIL). Co-culture supernatants were assessed by ELISA for IFNγ levels, as a measure for tumor recognition by the TIL.
(§4) The early-passage melanoma cell lines ANRU, ROAL and KADA were established from patients at the oncology clinic at Karolinska University Hospital (ethical permit: #2011/143-32/1) based on a published protocol.21 Mycoplasma-free (MycoAlert kit) cell lines were in their 15th to 45th passage when used in this study.
(§5) Culture and expansion of tumor-infiltrating lymphocytes was done as published before.^4 A piece of the tumor (approximately 0.5 cm3) was minced into 1 mm3 pieces. Each piece was placed in one well of a 24-well plate containing 1 mL/well CellGro medium supplemented with 2% autologous plasma (generated by centrifugation and heat-inactivation of plasma collected on the day of surgery) and 6,000 IU/mL IL-2 (Proleukin, Novartis, Basel, Switzerland). On day 1 of culture, half of the medium volume in each well was replaced with fresh medium supplemented with plasma and IL-2. After 3-4 days of culture, lymphocytes could usually be seen emerging from the tumor piece. Cultures were monitored regularly and split before reaching confluence. After approximately 2 weeks, expanding wells were pooled and counted. To generate large T cell numbers, TIL were cultured for approximately 14 days in presence of autologous, irradiated feeders (40 Gy, TIL:feeder ratio 1:50-1:80) with 300 IU/mL IL-2 and 30 ng/mL anti-CD3 antibody (OKT3, Cilag, Zug, Switzerland). Cells were split or medium exchanged as necessary. Cultures were initiated in standing T75 flasks, but transferred to VueLife cell culture bags 1 week before harvest. At the end of culture, cells were harvested, pooled, characterized, counted and frozen.
as §2
To test this, we co-cultured ANRU tumor cells for 24 hours with autologous TIL in the presence and absence of a PD-L1 blocking antibody. Suitable PD-L1 blocking antibodies are commercially available, and include anti-human CD274 (B7-H1, PD-L1) Antibody (clone 29E.2A3; Cat No. 329709; Biolegend), anti-human CD274 (B7-H1, PD-L1) Antibody (clone MIH3; Cat No. 374502; Biolegend), Anti-PD-L1 (CD274) Neutralizing Antibody (Cat No. 71213; BPS Bioscience), PD-L1/B7-H1/CD274 Blocking Antibody (clone R639; Cat No. 10084-R639; Sino Biological) and Human PD-L1/B7-H1 Antibody (Cat No. AF156; R and D Systems). Tumors cell were pretreated for 12, 24, 48 and 72 hours, to check for any PD-L1 induction or suppression over time by flow cytometry, and to define the time kinetics of JQ1-induced sensitization of tumors for recognition by TIL in a co-culture. We reasoned that recognition by autologous TIL should not be affected by PD-L1 blockade at any time point if ANRU tumor cells would be PD-L1 negative under all conditions.
Herein, we addressed the question whether enhanced tumor recognition by autologous TIL after JQ1 treatment is directed at tumor-associated antigens or tumor-specific mutant antigens. Therefore we co-cultured ANRU cells with TIL sorted for their specifity towards either the tumor-associated antigen MART-1, or two different tumor-specific mutant antigens, designated ETV6.9 and NUP210.

ROAL tumor cells = experiment: Co-culture of pretreated ROAL tumor cells with autologous TIL, IFNγ ELISA on supernatant; type: cell-based, human
Method: as §3, §4
as §5, with “To generate large T cell numbers, TIL were cultured for approximately 14 days in presence of autologous, irradiated feeders (40 Gy, TIL:feeder ratio 1:50-1:80) with 300 IU/mL IL-2 and 30 ng/mL anti-CD3 antibody (OKT3, Cilag, Zug, Switzerland). Cells were split or medium exchanged as necessary. Cultures were initiated in standing T75 flasks, but transferred to VueLife cell culture bags 1 week before harvest.” left out
as §2

KADA tumor cells = experiment: Co-culture of pretreated KADA tumor cells with autologous TIL, IFNγ ELISA on supernatant; type: cell-based, human
Method: as §3, §4
as §5, with “To generate large T cell numbers, TIL were cultured for approximately 14 days in presence of autologous, irradiated feeders (40 Gy, TIL:feeder ratio 1:50-1:80) with 300 IU/mL IL-2 and 30 ng/mL anti-CD3 antibody (OKT3, Cilag, Zug, Switzerland). Cells were split or medium exchanged as necessary. Cultures were initiated in standing T75 flasks, but transferred to VueLife cell culture bags 1 week before harvest.” left out
as §2

A375 tumor cells = experiment: Co-culture of pretreated A375 tumor cells with allogeneic T cells, IFNγ ELISA on supernatant; type: cell-based, human; settings: A375, 72 hours JQ1 alone or in combination with IFNγ, 24 hours co-culture with allogeneic T cells
PD-L1 = PD-L1 expression on tumor cells by flow cytometry; type: cell-based, human; settings: 72 hours JQ1 and/or IFNγ
Method: as §1, §2

HLA class II = HLA class II expression on tumor cells by flow cytometry; type: cell-based, human
IDO = IDO expression in tumor cells by flow cytometry; type: cell-based, human; settings: early-passage melanoma cell lines, 72 hours JQ1 and/or IFNγ (FIG. 6)
CD73 = CD73 expression on tumor cell lines by flow cytometry; type: cell-based; settings: commercially available human tumor cell lines of various origins, 72 hours JQ1 and/or IFNγ (FIG. 7)
[1] = tested on: antigen-presentation machinery (APM); experiment: mRNA expression of antigen-presentation machinery components by qPCR; type: cell-based, human
Method: (§6) This was most apparent for HLA class I heavy chain, and overall was most clearly seen in A375 cells.
Moreover, the presence of a HLA class I blocking antibody always fully abrogated T-cell recognition in co-cultures with pretreated tumors. […] Therefore, we studied mRNA and protein expression of well-known components of the antigen-presentation machinery (APM) after pretreatment with JQ1 alone and/or IFNγ.
(§7) To study the time kinetics of these effects, the ANRU cell line was treated in the same way for 12, 24, 48 and 72 hours. […] This was most apparent for HLA class I heavy chain, and overall was most clearly seen in A375 cells.

[2] = tested on: antigen-presentation machinery (APM); experiment: Western blot of antigen-presentation machinery components; type: cell-based, human; settings: ANRU, ROAL, KADA and A375 cells, 72 hours JQ1 and/or IFNγ; most clearly in A375
Method: as §6, §7

STAT1 = STAT1 mRNA expression by RT-qPCR; type: cell-based, human; settings: ANRU, ROAL and A375 cells, JQ1 with IFNγ
From the text: (§8) (B) mRNA expression levels, measured by RT-qPCR, in ANRU, ROAL and A375 cells of STAT1 and JAK1, two proteins crucially involved in signaling downstream of IFNγ ligation to its cognate receptor.

JAK1 = JAK1 mRNA expression by RT-qPCR; type: cell-based, human; settings: ANRU, ROAL and A375 cells, JQ1 by itself and in combination
From the text: as §8

MYC = MYC expression by western blot; type: cell-based; settings: 72 hours JQ1 alone or in combination with IFNγ
[3] = ANRU, 72 hours pretreatment with the substance alone
[4] = pretreatment with the substance alone
[5] = ANRU, 72 hours, IFNγ in the presence of JQ1

## COc1cc2c(cc1-c1c(C)noc1C)ncc1[nH]c(=O)n([C@H](C)c3ccccn3)c12 [I-BET151]
HLA class I; A375, 72 hours
  HLA class I induction by IFNγ in combination with BETi: clearly increased
HLA class I; ROAL, 72 hours
  HLA class I induction by IFNγ in combination with BETi: clearly increased

## CCNC(=O)C[C@@H]1N=C(c2ccc(Cl)cc2)c2cc(OC)ccc2-n2c(C)nnc21 [I-BET762]
HLA class I; A375, 72 hours
  HLA class I induction by IFNγ in combination with BETi: clearly increased
HLA class I; ROAL, 72 hours
  HLA class I induction by IFNγ in combination with BETi: clearly increased

## IFNγ: Interferon gamma (IFNγ), a known physiological cue for sensitization of target cells for T-cell recognition
ANRU tumor cells
  Time kinetics of sensitization for recognition by TIL: did not lead to an improvement of tumor recognition
ANRU tumor cells; [3]
  T-cell recognition by autologous TIL (IFNγ production in co-culture): did not lead to any increases in T-cell recognition
ROAL tumor cells; [4]
  Recognition by autologous TIL (IFNγ production in co-culture): did not sensitize the cells
KADA tumor cells; [4]
  Recognition by autologous TIL (IFNγ production in co-culture): strongly sensitized

## Cc1sc2c(c1C)C(c1ccc(Cl)cc1)=N[C@@H](CC(=O)OC(C)(C)C)c1nnc(C)n1-2 [JQ1]
ANRU tumor cells; ANRU pretreated 12, 24, 48 and 72 hours with JQ1 and/or IFNγ, 24 hours co-culture with or without PD-L1 blocking antibody
  Effect of PD-L1 blocking antibody on recognition of pretreated tumor cells by TIL: no effect of PD-L1 blockade was seen
ANRU tumor cells
  Time kinetics of sensitization for recognition by TIL: most prominent after pretreatment with JQ1 alone for 72 hours
ANRU tumor cells; ANRU, 0.4 μM JQ1 for 72 hours
  Recognition by TIL sorted for MART-1, ETV6.9 and NUP210 specificity (IFNγ in co-culture supernatant): improved recognition by all three TIL populations
ANRU tumor cells; ANRU, 72 hours pretreatment with JQ1 in combination with IFNγ
  T-cell recognition by autologous TIL (IFNγ production in co-culture): did not lead to any increases in T-cell recognition
ANRU tumor cells; [3]
  T-cell recognition by autologous TIL (IFNγ production in co-culture): dose-dependent increase in T-cell recognition
ROAL tumor cells; pretreatment with combination of JQ1 and IFNγ
  Recognition by autologous TIL (IFNγ production in co-culture): significantly better and synergistically recognize
ROAL tumor cells; [4]
  Recognition by autologous TIL (IFNγ production in co-culture): did not sensitize
KADA tumor cells; pretreatment with combination of IFNγ and JQ1, versus IFNγ
  Recognition by autologous TIL (IFNγ production in co-culture): led to a reduction in tumor cell recognition
KADA tumor cells; [4]
  Recognition by autologous TIL (IFNγ production in co-culture): did not sensitize
A375 tumor cells
  T-cell recognition (IFNγ levels in co-culture supernatants) compared to DMSO-treated tumor cells: strongly and significantly enhanced
PD-L1; ANRU
  PD-L1 expression: wholly absent under all conditions
PD-L1; KADA
  Constitutive and IFNγ-induced PD-L1 expression: strongly suppressed
PD-L1; ROAL
  PD-L1 expression: marginal if not absent under all conditions
HLA class I; A375, 72 hours, IFNγ in the presence of JQ1 (FIG. 1)
  HLA class I induction by IFNγ: enhances HLA class I induction by IFNγ
HLA class I; A375, 72 hours
  HLA class I induction by IFNγ in combination with BETi: clear dose-dependent enhancement of HLA class I induction by IFNγ
HLA class I; A549 (lung carcinoma), 72 hours JQ1 and/or IFNγ
  HLA class I induction by IFNγ: enhances HLA class I induction by IFNγ
HLA class I; [5]
  HLA class I induction by IFNγ: consistent enhancement of HLA class I induction by IFNγ
HLA class I; HCT116 (colon carcinoma), 72 hours JQ1 and/or IFNγ
  HLA class I induction by IFNγ: enhances HLA class I induction by IFNγ
HLA class I; HeLa (cervical carcinoma), 72 hours JQ1 and/or IFNγ
  HLA class I induction by IFNγ: enhances HLA class I induction by IFNγ
HLA class I; KADA, 72 hours, IFNγ in the presence of JQ1
  HLA class I induction by IFNγ: reduced HLA class I induction by IFNγ
HLA class I; ROAL, 72 hours, IFNγ in the presence of JQ1
  HLA class I induction by IFNγ: significantly more strongly induced by IFNγ
HLA class I; ROAL, 72 hours
  HLA class I induction by IFNγ in combination with BETi: clear dose-dependent enhancement of HLA class I induction by IFNγ
HLA class II; [5]
  HLA class II upregulation by IFNγ: upregulation of HLA class II was actually suppressed
HLA class II; early-passage melanoma cell lines, 72 hours JQ1 and/or IFNγ (FIG. 6)
  Constitutive and IFNγ-induced HLA class II expression: clearly suppressed
IDO
  IFNγ-induced IDO expression: suppresses IFNγ-induced IDO expression
CD73
  CD73 induction by IFNγ: suppresses CD73 induction by IFNγ
[1]; ANRU, 12, 24, 48 and 72 hours, 0.4 μM JQ1 and/or 25 ng/ml IFNγ
  mRNA induction of APM components by IFNγ, time kinetics: potentiated the induction of APM components by IFNγ at all time points
[1]; ANRU, ROAL, KADA and A375 cells, 72 hours JQ1 and/or IFNγ, most pronounced for HLA class I, B2M, TAP1 and TAP2
  mRNA induction of APM components by IFNγ: potentiated their induction by IFNγ
[2]
  Protein level induction of APM components by IFNγ (TAP1, TAP2, Tapasin, HLA class I heavy chain, LMP2, LMP10): Enhanced induction of APM components by IFNγ
STAT1
  STAT1 mRNA induction by IFNγ: strongly enhances induction of STAT1 by IFNγ
JAK1
  JAK1 mRNA expression: consistently increases JAK1 expression
MYC
  MYC expression: downregulated

Reference: patent publication US12296009B2, “Immunogenic composition for the treatment of cancer” (APGEN THERAPUETICS AB, priority 2017, dated 2025)
